Here are results for 87 compounds from a melting point compilation (Tetko et al.; mined from patent text by program, amines drawn as free bases though some values may be those of a salt).

The term melting point denotes the temperature of the solid-liquid transition. `Nc1nc2ccc(C(=C(Cl)Cl)c3ccccc3)cc2n1N1C=CC=CS1` registered a melting point of 214 to 217 °C.
The value for `Cc1c(NC(=O)CC(C)(C)C)c(C)c2c(c1-c1cncnc1)OCC2c1ccc(C(C)C)cc1` (configuration not stated) was 167 to 169 °C; that for `COc1nc(Cl)nc(Nc2ccc(OC(=O)C(C)(C)Br)cc2)n1` was 107 to 108 °C; that for `COc1ccc(S(=O)(=O)c2ccc(OC)c3ccccc23)cc1` was 160 to 162 °C.
With `CCC1CCCCN1CCNc1ccnc2cc(Cl)ccc12` (racemic), the melting point lay within 115 to 117 °C.
The value for `CN1CC2c3ccc(C=O)n3Cc3ccccc3N2C(=O)C1=O` (configuration not stated) was 300 to 302 °C; that for `CCn1cnc2c(Nc3cccc(Cl)c3)nc(N3CCC[C@@H]3CN)nc21` was 126 to 129 °C.
Next, `O=Cc1ccc2nccnc2c1`: 134 °C; `CC(C)(C)OC(=O)NCc1cccc(C(=O)O)n1`: 238 to 240 °C; `COc1c(N2CC[C@@H](O)[C@H](C)C2)c(F)c(N)c2c(=O)c(C(=O)O)cn(C3CC3)c12` (relative stereo): 240 to 244 °C.
The compound `COc1ccc2c(c1)c(CC(=O)Oc1ccc(CN3CCN(CC(C)(C)SN=O)CC3)cc1)c(C)n2C(=O)c1ccc(Cl)cc1` had a melting point of 90 to 92 °C.
The value for `Cn1cc(Oc2cc(Cl)cc(Cl)c2)c(=O)c(-c2cccc(C(F)(F)F)c2)c1` was 128 to 130 °C.
The value for `Nc1ccc2sc3ccc(F)cc3c2c1` was 131 to 132 °C; that for `N#Cc1c(Nc2cccc(Cl)c2)nn(Cc2ccccc2)c1N` was 234 to 236 °C; that for `CC(C)(C)OC(=O)NC1CN(c2c(F)cc3c(=O)c(C(=O)O)cn(C4CC4)c3c2Cl)CC12CC2` (configuration not stated) was 205 to 207 °C.
The value for `COCCOc1cc(N(C)S(=O)(=O)c2cccs2)c2[nH]c(C3=NCC(CC(=O)O)S3)cc2c1` (configuration not stated) was 113 to 114 °C; that for `COC(=O)C(Oc1ccc(-c2ccc(Cl)cc2)cc1)C(F)(F)F` (configuration not stated) was 104 to 105 °C; that for `COc1cc2c(cc1OC)C1=C(C#N)SCCC(=O)N1CC2` was 192 to 194 °C.
The compound `CN(C(=O)CN(C(=O)CNC(=O)Nc1cccc(S(N)(=O)=O)c1)c1ccccc1)c1ccccc1` registered a melting point of 175 °C.
Next, `CN(C(=O)Nc1ccccc1)c1ccc(Cl)cc1C(=O)c1ccccc1`: 158 to 160 °C; `CCCCCC(CC(=O)Nc1cc(C(N)=O)ccc1C(C)(C)C)c1ccc(OC)cc1OC` (single isomer, unassigned; (+)): 152 °C; `Cc1ccc(-c2c(NS(=O)(=O)c3ccc(C(C)(C)C)cc3)ncnc2OCCOc2ccc(N(C)C)cc2)cc1`: 142 to 145 °C.
The value for `Cc1cc2c(c(C(O)c3cn(C(c4ccccc4)(c4ccccc4)c4ccccc4)cn3)c1)OC(C)(C)OC2` (configuration not stated) was 205 to 215 °C; that for `COC(=O)CCC(=O)c1ccccc1NC(=O)CCl` was 102 °C.
Next, `O=[N+]([O-])c1ccc(Oc2ccccc2)cc1OCc1ccccc1`: 96 to 98 °C; `CC(C=O)Cc1cc(C(C)(C)C)c(O)c(C(C)(C)C)c1` (configuration not stated): 162 to 164 °C; `OC(CCc1nc(CCl)no1)c1ccc(-c2ccccc2)cc1` (configuration not stated): 48 to 49 °C.
`CCN(CC=C(Cl)Cl)C(=O)Nc1ccc(Cl)c(Cl)c1` displayed a melting point of 105 to 106 °C.
The value for `COC(=O)[C@H]1NC(=O)[C@H]1NC(=O)Cc1csc(NC(=O)CCl)n1` (relative stereo) was 120 to 122 °C.
Consider `CC(=O)NCC1CN(Cc2ccc(F)cc2)CCO1` (configuration not stated), for which the melting point lay in the range of 120 to 122 °C.
With `O=C(NO)c1ccc(CNC(=O)c2[nH]c(-c3ccoc3)cc2-c2ccc(F)cc2)cc1`, the melting point lay in the range of 162 to 164 °C.
The value for `COc1ccc2c(c1)c1c(n2Cc2ccc(C(C)(C)C)cc2)COC(=O)C1=O` was 238 to 239 °C; that for `COn1cnc2c(N)nc3ccccc3c21` was 238 to 240 °C.
Next, `CN1C(=O)OC[C@H]1Cc1ccccc1`: 75 to 77 °C; `CCN(C(=O)OC(C)(C)C)C1CC=C(c2c[nH]c3ccc(NC(=N)c4cccs4)cc23)CC1` (configuration not stated): 124 to 126 °C.
`CN(C)C(=O)NC1CCC(=O)c2ccccc21` (configuration not stated) displayed a melting point of 157 to 162 °C.
Next, `COc1ccc2nc(Cl)cc(CCNC(C)=O)c2c1`: 162 to 164 °C; `Oc1ccc(Nc2nc(NCc3ccco3)nc(-n3ccnc3)n2)cc1`: 244 to 246 °C.
The value for `CC(C)(O)C1COCc2nc3c(N)nc4ccccc4c3n21` (configuration not stated) was 216 to 217 °C; that for `O=C1NC(C(Cl)(Cl)Cl)Nc2ccccc21` (configuration not stated) was 201 to 202 °C; that for `CCOC(=O)C=Cc1ccc(C(=O)c2ccc3c(c2)C2(C)C4(C)CCC(C4)C2(C)O3)cc1` (configuration not stated) was 115 to 116 °C.
The value for `Cc1[nH]c(=O)ccc1C(=O)c1cccs1` was 227 to 228 °C; that for `CS(=O)(=O)c1ccc(-c2nc(C(F)(F)F)nc(Cl)c2-c2ccccc2)cc1` was 156 to 159 °C; that for `O=C(Nc1ccc(OCCNCC2CC2)cc1)c1c[nH]c2c1C(=O)CCC2` was 234 °C.
The compound `OC(Cn1ccnc1)(Cn1cncn1)c1ccc(Cl)cc1Cl` (configuration not stated) gave a melting point of 169 to 170 °C.
The value for `CCn1ncc2c3onc(-c4ccc(OC)cc4)c3cnc21` was 156 to 157 °C; that for `CCCCc1nc2ccccc2n1Cc1ccc(-c2ccccc2CO)cc1` was 162 to 163 °C; that for `CS(=O)(=O)c1ccc2c(C=C[N+](=O)[O-])c[nH]c2c1` was above 250 °C.
`COc1cc(C=Cc2ccccc2)cc(OC)c1OC` came in with a melting point of 108 °C.
Next, `O=c1[nH]c2ccc(F)cc2c(=O)o1`: 240 °C.
Next, `COCCOc1ccc(-c2cncc(C#N)c2Nc2ccc3[nH]ccc3c2C)cc1`: 208 to 210 °C.
Next, `Nc1ccc(-c2ccc(N)cc2Br)c(Br)c1`: 151 to 153 °C; `N#Cc1cccc2c1CC(Br)C2=O` (configuration not stated): 124 °C; `CC(C)(C)NCC(O)c1cc(F)cc(C#N)c1F` (configuration not stated): 99 to 101 °C.
`O=C(O)c1[nH]c2ccc(Cl)cc2c1S(=O)c1ccccc1` (configuration not stated) showed a melting point of 183 to 185 °C.
The value for `CN(C)CCC1=Cc2ccc(NC(=O)c3ccc(-c4ccccc4)cc3)cc2CC1` was 148 to 150 °C.
Next, `Cc1csc2ccc(CO)cc12`: 51 to 53 °C; `CCOC(=O)c1nnc2n1-c1sc(CC)cc1C(c1ccccc1Cl)=NC2`: 138 to 140 °C; `CC(C)C1(C)CC(=O)CC(C)(C)N1OC(C)(C)C#N` (configuration not stated): 32 to 44 °C.
Next, `COc1cc2[nH]cc(C(=O)Nc3cccnc3)c2cc1Br`: above 250 °C; `c1ccc(COc2ccc(-c3cc4ccccc4[nH]3)cc2)cc1`: 251 °C.
In turn, `O=C(c1ccc2[nH]ccc2c1)N1CCN(CCc2ccc3nonc3c2)CC1` showed a melting point of 180 to 183 °C.
The value for `COc1cc(C(C)C#Cc2cnc(N)nc2N)cc(OC)c1OC` (configuration not stated) was 220 to 222 °C; that for `Cc1ccnc2c([N+](=O)[O-])cc(F)cc12` was 139 to 141 °C.
The value for `Nc1cccc(-c2ccc(CCN3CCC4(CC3)NC(=O)N(CCc3ccccc3)C4=O)cc2)n1` was 176 to 180 °C.
Next, `Cn1c(=O)c2c(nc(N3CCC(N)C3)n2Cc2ccccc2C#N)n(C)c1=O` (configuration not stated): 186 to 189 °C; `CC(C)(C)c1cc(-c2csc(CNc3ccccc3)n2)cc(C(C)(C)C)c1O`: 147 to 148 °C; `C[C@@H](NC(=O)c1ccc(-c2ccc(Cl)cc2)s1)[C@](O)(Cn1cncn1)c1ccc(F)cc1F`: 169 to 170 °C.
In turn, `C#CCSc1cc(-c2nn(C)c(SC)c2Cl)c(F)cc1Cl` returned a melting point of 93 to 96 °C.
The compound `CC1CC(C(=O)Nc2ccccc2)(C(=O)OC(C)(C)C)N(C(=O)CNC(=O)Nc2cccc(C(=O)O)c2)C1c1ccccc1` (configuration not stated) registered a melting point of 238 °C.
`Cc1noc(C)c1CN1C(=O)C2(COc3cc4c(cc32)OCO4)c2ccccc21` (configuration not stated) registered a melting point of 165 to 167 °C.
Next, `Cc1nc(Sc2ncccc2C(F)(F)F)sc1CC(=O)O`: 195 to 196 °C; `C[C@@H](O)[C@H](NC(=O)Cc1ccccc1)C(=O)O`: 118 to 120 °C.
Next, `Cc1cccc(/C=C/C2=CCN(Cc3c[nH]c4ncccc34)CC2)c1`: 210 to 212 °C.
For the compound `COC(=O)c1ccc2c(c1)c(Cc1ccc(C(=O)NS(=O)(=O)c3ccccc3C)cc1OC)cn2C`, the melting point lay within 185 to 187 °C.
`O=c1n(CCCCN2CCN(c3cccc(Cl)c3)CC2)nc2n1-c1ccccc1OC2` gave a melting point of 132 to 134 °C.
On to `C[C@@H](CN)CCC[C@@H](C)[C@H]1CC[C@H]2[C@@H]3CC=C4C[C@@H](O)CC[C@]4(C)[C@H]3CC[C@]12C`, for which the melting point lay in the range of 150 to 152 °C.
Next, `COC(=O)Cc1ccc(-c2ccc(O)cc2)c(F)c1`: 115 to 118 °C.
The value for `CNc1nc(Cl)nc2c1ncn2C1CC(F)C(CO)O1` (configuration not stated) was 181 to 182 °C; that for `Cc1cccc2c(=O)n3c(nc12)C(=O)c1ccccc1-3` was 247 to 248 °C.
The value for `CCC(CC)C(NS(=O)(=O)c1ccc(Cl)s1)c1ccnn1S(=O)(=O)c1ccc(C)cc1` (configuration not stated) was 146 to 148 °C; that for `O=c1c(CCCc2ccoc2)cc2cccnc2n1-c1cccc([N+](=O)[O-])c1` was 185 to 186 °C; that for `O=C(NCc1ccc(Cl)cc1)c1cn2c3c(cc(CN4CCOCC4)cc3c1=O)OC(CNCc1ccncc1)C2` (configuration not stated) was 164 to 167 °C.
On to `COc1ccc(C2CSc3ccccc3NC2=O)cc1Br` (configuration not stated), for which the melting point was 200 °C.
The value for `CCCCOP(=O)(CCCC1(c2ccccn2)c2ccccc2-c2ccccc21)OCCCC` was 126 to 128 °C; that for `COc1ccccc1Cn1c(-c2cc(OC)c(OC)c(OC)c2)nc2ccccc21` was 136 °C.
Next, `COC(=O)c1c(C)nc(CC(C)C)c(CN)c1-c1ccc(C)cc1`: 56 to 57 °C.
